pEC50: −log10 of the molar value.
Tests used:
[1] = tested on: Wnt-responsive promoter driving firefly luciferase in SW480 cells; test: Wnt reporter (SP5 promoter-luciferase) screening assay in SW480 cells; assay type: cell-based; settings: Homo sapiens, 24-40 h, top concentration ten micromolar
Excerpt: Another screening assay for Wnt activity is described as follows. Reporter cell lines can be generated by stably transducing cells of cancer cell lines (e.g., colon cancer) with a lentiviral construct that include a Wnt-responsive promoter driving expression of the firefly luciferase gene.
Lentiviral constructs can be made in which the SP5 promoter, a promoter having eight TCF/LEF binding sites derived from the SP5 promoter, is linked upstream of the firefly luciferase gene. The lentiviral constructs can also include a hygromycin resistance gene as a selectable marker. The SP5 promoter construct can be used to transduce SW480 cells, a colon cancer cell line having a mutated APC gene that generates a truncated APC protein, leading to de-regulated accumulation of β-catenin.
Cultured SW480 cells bearing a reporter construct can be distributed at approximately 10,000 cells per well into 96 well or 384 well plates. Compounds from a small molecule compound library can then be added to the wells in half-log dilutions using a ten micromolar top concentration. A series of control wells for each cell type receive only buffer and compound solvent. Twenty-four to forty hours after the addition of compound, reporter activity for luciferase can be assayed, for example, by addition of the BrightGlo luminescence reagent (Promega) and the Victor3 plate reader (Perkin Elmer). Readings can be normalized to DMSO only treated cells, and normalized activities can then be used in the EC50 calculations.

[2] = tested on: primary human mesenchymal stem cells (hMSCs); test: Tenocyte differentiation screening in hMSCs (SCXA-positive cells, 4 days); assay type: cell-based; settings: 96 h, fold change over DMSO
Excerpt: Representative compounds were screened using primary human mesenchymal stem cells (hMSCs) to determine their ability to induce tenocyte differentiation (process by which tendon is developed).
Primary human mesenchymal stem cells (hMSCs) were purchased from Lonza (Walkersville, Md.) and expanded in Mesenchymal Stem Cell Growth Media (Lonza). Cells between passage 3 and 6 were used for the experiments.
Cells were fixed using 4% formaldehyde (Electron Microscopy Sciences), and stained with anti-Sclerasis (anti-SCXA) antibodies (Abgent, San Diego, Calif.) [Webb S., et. al., Retinoic acid receptor signaling preserves tendon stem cell characteristics and prevents spontaneous differentiation in vitro, Stem Cell Research & Therapy 2016, 7:45] overnight at 4° C. […] Number of cells positive for SCXA in each well was quantified using the Celllnsight CX5. Data was normalized to the average of 12 DMSO treated wells on the same plate using Dotmatics Studies module. The normalized averages (fold change over DMSO) of 3 replicate wells for each compound concentration were calculated. Due to solubility limitations of some of the compounds, values for higher doses were manually corrected and curve fitting and EC50 determinations were performed using Dotmatics Studies.
EC50 for each compound is reported.

SMILES: O=C(Nc1cccnc1)c1n[nH]c2ccc(-c3cncc(CN4CCCC4)c3)cc12 [compound 43, N-(Pyridin-3-yl)-5-(5-(pyrrolidin-1-ylmethyl)pyridin-3-yl)-1H-indazole-3-carboxamide]
- pEC50 [1]: 7.20
- pEC50 [2]: 5.30

SMILES: CCOc1ccc(NC(=O)c2n[nH]c3ccc(-c4cncc(CN5CCCC5)c4)cc23)cn1 [compound 44, N-(6-Ethoxypyridin-3-yl)-5-(5-(pyrrolidin-1-ylmethyl)pyridin-3-yl)-1H-indazole-3-carboxamide]
- pEC50 [1]: 6.80
- pEC50 [2]: 4.60

SMILES: CCOc1ccc(NC(=O)c2n[nH]c3ccc(-c4cncc(CN5CCCCC5)c4)cc23)cn1 [compound 45, N-(6-Ethoxypyridin-3-yl)-5-(5-(piperidin-1-ylmethyl)pyridin-3-yl)-1H-indazole-3-carboxamide]
- pEC50 [1]: 6.96
- pEC50 [2]: 5.01

SMILES: O=C(Nc1cccnc1)c1n[nH]c2ccc(-c3cncc(CN4CCCCC4)c3)cc12 [compound 46, 5-(5-(Piperidin-1-ylmethyl)pyridin-3-yl)-N-(pyridin-3-yl)-1H-indazole-3-carboxamide]
- pEC50 [1]: 7.82
- pEC50 [2]: 5.30

SMILES: O=C(Nc1cnccc1C(F)(F)F)c1n[nH]c2ccc(-c3cncc(CN4CCCCC4)c3)cc12 [compound 47, 5-(5-(Piperidin-1-ylmethyl)pyridin-3-yl)-N-(4-(trifluoromethyl)pyridin-3-yl)-1H-indazole-3-carboxamide]
- pEC50 [1]: 7.15
- pEC50 [2]: < 4.00

SMILES: O=C(Nc1cnccc1C(F)(F)F)c1n[nH]c2ccc(-c3cccnc3)cc12 [compound 48, 5-(Pyridin-3-yl)-N-(4-(trifluoromethyl)pyridin-3-yl)-1H-indazole-3-carboxamide]
- pEC50 [1]: ≤ 5.00
- pEC50 [2]: < 4.00

SMILES: O=C(Nc1cccnc1)c1n[nH]c2ccc(-c3cccc(CN4CCCC4)c3)cc12 [compound 49, N-(Pyridin-3-yl)-5-(3-(pyrrolidin-1-ylmethyl)phenyl)-1H-indazole-3-carboxamide]
- pEC50 [1]: 7.24
- pEC50 [2]: < 4.00

SMILES: O=C(Nc1cccnc1)c1n[nH]c2ccc(-c3ccc(N4CCCC4)nc3)cc12 [compound 51, N-(Pyridin-3-yl)-5-(6-(pyrrolidin-1-yl)pyridin-3-yl)-1H-indazole-3-carboxamide]
- pEC50 [1]: 7.59
- pEC50 [2]: < 4.00

SMILES: N#Cc1ccc(NC(=O)c2n[nH]c3ccc(-c4cncc(CN5CCCC5)c4)cc23)cn1 [compound 52, N-(6-Cyanopyridin-3-yl)-5-(5-(pyrrolidin-1-ylmethyl)pyridin-3-yl)-1H-indazole-3-carboxamide]
- pEC50 [1]: 7.24
- pEC50 [2]: < 4.00

SMILES: O=C(Nc1ccc(N2CCCC2)nc1)c1n[nH]c2ccc(-c3cccnc3)cc12 [compound 53, 5-(Pyridin-3-yl)-N-(6-(pyrrolidin-1-yl)pyridin-3-yl)-1H-indazole-3-carboxamide]
- pEC50 [1]: 7.20
- pEC50 [2]: < 4.00

SMILES: COc1ccc(-c2ccc3[nH]nc(C(=O)Nc4cccnc4)c3c2)cn1 [compound 54, 5-(6-Methoxypyridin-3-yl)-N-(pyridin-3-yl)-1H-indazole-3-carboxamide]
- pEC50 [1]: 6.80
- pEC50 [2]: < 4.00

SMILES: O=C(Nc1cccnc1)c1n[nH]c2ccc(-c3cncc(Cc4ccccc4)c3)cc12 [compound 55, 5-(5-Benzylpyridin-3-yl)-N-(pyridin-3-yl)-1H-indazole-3-carboxamide]
- pEC50 [1]: 7.36
- pEC50 [2]: < 4.00

SMILES: O=C(Nc1cccnc1)c1n[nH]c2ccc(-c3cncc(Oc4ccccc4)c3)cc12 [compound 56, 5-(5-Phenoxypyridin-3-yl)-N-(pyridin-3-yl)-1H-indazole-3-carboxamide]
- pEC50 [1]: 6.80
- pEC50 [2]: 6.20

SMILES: O=C(Nc1cnccc1C(F)(F)F)c1n[nH]c2ccc(-c3cncc(CN4CCCC4)c3)cc12 [compound 57, 5-(5-(Pyrrolidin-1-ylmethyl)pyridin-3-yl)-N-(4-(trifluoromethyl)pyridin-3-yl)-1H-indazole-3-carboxamide]
- pEC50 [1]: ≤ 5.00
- pEC50 [2]: < 4.00

SMILES: O=C(Nc1cnccc1NC(=O)C1CC1)c1n[nH]c2ccc(-c3cccnc3)cc12 [compound 58, N-(4-(Cyclopropanecarboxamido)pyridin-3-yl)-5-(pyridin-3-yl)-1H-indazole-3-carboxamide]
- pEC50 [1]: 7.15
- pEC50 [2]: < 4.00

SMILES: O=C(NC1CCCCC1)c1cncc(-c2ccc3[nH]nc(C(=O)Nc4cccnc4)c3c2)c1 [compound 59, 5-(5-(Cyclohexylcarbamoyl)pyridin-3-yl)-N-(pyridin-3-yl)-1H-indazole-3-carboxamide]
- pEC50 [1]: 5.51
- pEC50 [2]: 4.84

SMILES: CN1CCN(Cc2cc(F)cc(-c3ccc4[nH]nc(C(=O)Nc5cnccc5C(F)(F)F)c4c3)c2)CC1 [compound 60, 5-(3-Fluoro-5-((4-methylpiperazin-1-yl)methyl)phenyl)-N-(4-(trifluoromethyl)pyridin-3-yl)-1H-indazole-3-carboxamide]
- pEC50 [1]: ≤ 5.00
- pEC50 [2]: < 4.00

SMILES: CN1CCN(Cc2cncc(-c3ccc4[nH]nc(C(=O)Nc5cccnc5)c4c3)c2)CC1 [compound 61, 5-(5-((4-Methylpiperazin-1-yl)methyl)pyridin-3-yl)-N-(pyridin-3-yl)-1H-indazole-3-carboxamide]
- pEC50 [1]: 6.62
- pEC50 [2]: 4.91

SMILES: N#Cc1ccc(NC(=O)c2n[nH]c3ccc(-c4cncc(CN5CCCCC5)c4)cc23)cn1 [compound 62, N-(6-Cyanopyridin-3-yl)-5-(5-(piperidin-1-ylmethyl)pyridin-3-yl)-1H-indazole-3-carboxamide]
- pEC50 [1]: 7.80
- pEC50 [2]: < 4.00

SMILES: O=C(Nc1ccc(C(F)(F)F)nc1)c1n[nH]c2ccc(-c3cncc(CN4CCCCC4)c3)cc12 [compound 63, 5-(5-(Piperidin-1-ylmethyl)pyridin-3-yl)-N-(6-(trifluoromethyl)pyridin-3-yl)-1H-indazole-3-carboxamide]
- pEC50 [1]: 7.00
- pEC50 [2]: 4.99

SMILES: O=C(Nc1cccnc1)c1n[nH]c2ccc(-c3cncc(CN4CCOCC4)c3)cc12 [compound 64, 5-(5-(Morpholinomethyl)pyridin-3-yl)-N-(pyridin-3-yl)-1H-indazole-3-carboxamide]
- pEC50 [1]: 8.22
- pEC50 [2]: 5.12

SMILES: O=C(Nc1ccc(-c2ccccc2)nc1)c1n[nH]c2ccc(-c3cncc(CN4CCCCC4)c3)cc12 [compound 65, N-(6-Phenylpyridin-3-yl)-5-(5-(piperidin-1-ylmethyl)pyridin-3-yl)-1H-indazole-3-carboxamide]
- pEC50 [1]: 7.00
- pEC50 [2]: < 4.00

SMILES: N#Cc1cncc(-c2ccc3[nH]nc(C(=O)Nc4cccnc4)c3c2)c1 [compound 66, 5-(5-Cyanopyridin-3-yl)-N-(pyridin-3-yl)-1H-indazole-3-carboxamide]
- pEC50 [1]: ≤ 5.00
- pEC50 [2]: < 4.00

SMILES: O=C(Nc1cccnc1)c1n[nH]c2ccc(-c3cc(F)cc(CN4CCCCC4)c3)cc12 [compound 67, 5-(3-Fluoro-5-(piperidin-1-ylmethyl)phenyl)-N-(pyridin-3-yl)-1H-indazole-3-carboxamide]
- pEC50 [1]: ≤ 5.00
- pEC50 [2]: < 4.00

SMILES: O=C(Nc1ccc(C(F)(F)F)nc1)c1n[nH]c2ccc(-c3cncc(CN4CCOCC4)c3)cc12 [compound 68, 5-(5-(Morpholinomethyl)pyridin-3-yl)-N-(6-(trifluoromethyl)pyridin-3-yl)-1H-indazole-3-carboxamide]
- pEC50 [1]: 7.32
- pEC50 [2]: 5.34

SMILES: O=C(Nc1ccc(N2CCOCC2)nc1)c1n[nH]c2ccc(-c3cncc(CN4CCCCC4)c3)cc12 [compound 69, N-(6-Morpholinopyridin-3-yl)-5-(5-(piperidin-1-ylmethyl)pyridin-3-yl)-1H-indazole-3-carboxamide]
- pEC50 [1]: 7.30
- pEC50 [2]: 4.90

SMILES: CN1CCN(c2ccc(NC(=O)c3n[nH]c4ccc(-c5cncc(CN6CCCCC6)c5)cc34)cn2)CC1 [compound 70, N-(6-(4-Methylpiperazin-1-yl)pyridin-3-yl)-5-(5-(piperidin-1-ylmethyl)pyridin-3-yl)-1H-indazole-3-carboxamide]
- pEC50 [1]: 7.39
- pEC50 [2]: 4.96

SMILES: O=C(Nc1ccc(N2CCCC2)nc1)c1n[nH]c2ccc(-c3cncc(CN4CCCCC4)c3)cc12 [compound 71, 5-(5-(Piperidin-1-ylmethyl)pyridin-3-yl)-N-(6-(pyrrolidin-1-yl)pyridin-3-yl)-1H-indazole-3-carboxamide]
- pEC50 [1]: 7.60
- pEC50 [2]: < 4.00

SMILES: O=C(Nc1ccc(-c2cccc(F)c2)nc1)c1n[nH]c2ccc(-c3cncc(CN4CCCCC4)c3)cc12 [compound 72, N-(6-(3-Fluorophenyl)pyridin-3-yl)-5-(5-(piperidin-1-ylmethyl)pyridin-3-yl)-1H-indazole-3-carboxamide]
- pEC50 [1]: 6.67
- pEC50 [2]: < 4.00
